Assay results from patent US12644087B2, “Methods to generate polymer scaffolds having a gradient of crosslinking density” (The University of North Carolina at Chapel Hill, priority 2016, dated 2026).

System: primary human small intestinal epithelial cells
Protocol: Continuous monolayers of primary human small intestinal epithelial cells were generated on the crosslinked collagen hydrogel scaffold. […] (FIG. 3B) Fluorescence images of cells showing the EDU staining (white/light gray) and Hoechst 33342 (dark gray). The cell culture time was 10 days for A and B. (FIG. 3C) TEER vs. time (n=3 scaffolds).
To test this hypothesis, human small intestinal epithelial cells were plated on a hydrogel scaffold prepared in this manner, and the cell growth and TEER were monitored for up to 14 days (FIG. 3C). […] At day 10, the cells were stained with EDU (3-h pulse) to assess proliferating cells and Hoecsht nuclear stain to enable assessment of cell coverage across the scaffold (FIGS. 3A and 3B).

Substance: Lucifer yellow
- permeability of Lucifer yellow (apical to basal diffusion): 2.4±0.7 ×10^−8 cm·s^−1
